Data published in patent US8735588B2, “Nematocidal sulfonamides” (E I Du Pont De Nemours and Company, priority 2009, dated 2014).

Row | Compound | melting point [°C]
1 | CCn1cc(S(=O)(=O)NC(=O)c2cn3cc(C(F)(F)F)cc(Cl)c3n2)c(C)n1 [Compound 357, 8-chloro-N-[(1-ethyl-3-methyl-1H-pyrazol-4-yl)sulfonyl]-6-(trifluoromethyl)-imidazo[1,2-a]pyridine-2-carboxamide] | 251 to 252
2 | CCc1ccc(Cl)c(S(=O)(=O)NC(=O)c2cn3cc(C(F)(F)F)cc(Cl)c3n2)c1 [Compound 356, 8-chloro-N-[(2-chloro-5-ethylphenyl)sulfonyl]-6-(trifluoromethyl)imidazo[1,2-a]pyridine-2-carboxamide] | > 250
3 | COc1ccc(Cl)c(S(=O)(=O)[N-]C(=O)c2cn3cc(C(F)(F)F)cc(Cl)c3n2)c1.[Na+] [Compound 478] | > 250

Results, then the molecule that gave them:

Row | melting point [°C] | Compound
4 | > 250 | Cc1cc(S(=O)(=O)[N-]C(=O)c2cn3cc(C(F)(F)F)cc(Cl)c3n2)c(C)cc1C#N.[Na+] [Compound 477]
5 | 244 to 245 | Cc1cc(S(=O)(=O)NC(=O)c2cn3cc(C(F)(F)F)cc(Cl)c3n2)c(C)cc1C#N [Compound 19, 8-chloro-N-[(4-cyano-2,5-dimethylphenyl)sulfonyl]-6-(trifluoromethyl)imidazo[1,2-a]pyridine-2-carboxamide]
6 | 185 to 186 | Cc1cc(S(=O)(=O)NC(=O)c2cn3cc(C(F)(F)F)cc(Cl)c3n2)c(C)cc1C#N [Compound 479]
